The results in this text go back to article PMC6888270 (International Journal of Molecular Sciences, 2019).

For orientation: IC50 means the concentration that gives 50% inhibition.

The target of experiment [1] is T1, GnRH receptor (GnRHR) (Homo sapiens, UniProt P30968).
T1 sequence (P30968 1-328): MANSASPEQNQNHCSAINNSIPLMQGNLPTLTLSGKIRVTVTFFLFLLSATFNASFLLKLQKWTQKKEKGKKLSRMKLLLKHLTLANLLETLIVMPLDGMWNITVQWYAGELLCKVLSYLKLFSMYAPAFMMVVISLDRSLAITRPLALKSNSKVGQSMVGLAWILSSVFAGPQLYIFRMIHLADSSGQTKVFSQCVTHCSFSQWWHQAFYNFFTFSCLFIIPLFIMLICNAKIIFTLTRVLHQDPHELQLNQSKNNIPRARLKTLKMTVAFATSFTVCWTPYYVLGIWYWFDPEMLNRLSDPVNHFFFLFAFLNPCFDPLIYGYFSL
Description: BRET measurement of GnRH-induced intracellular Ca2+ increase in SH-SY5Y/GnRHR cells. As to conditions: means±SEM, n=6. Also noted: HA (hemagglutinin); expressed in transfected cells. It counts as cell-based. As to the method: Different transfection protocols were followed, depending on the endpoint to be measured. For BRET experiments, 3 × 10^4 cells were transiently transfected using vectors expressing the cAMP-CAMYEL or the aequorin-Ca^2+ BRET biosensor-encoding cDNA [59], as appropriate, together with the GnRHR-HA-encoding vector. Transfections were performed in a 96-well plate using the Metafectene PRO reagent (Biontex, München, Germany), as previously described. 100 ng of the receptor-encoding vector + 100 ng of the BRET biosensor-encoding vector were used for co-transfecting HEK293 cells, while SH-SY5Y cells were co-transfected using 200 ng of the receptor-encoding vector + 100 ng of the BRET biosensor-encoding vector. 200 ng of the aequorin-Ca^2+ BRET biosensor-encoding cDNA were used for transfecting LβT2 cells. Each sample was prepared in duplicate, cultured for 48 h and serum-starved over-night before experiments.
To evaluate Ca^2+ increase, cells were incubated in Hank’s Balanced Salt Solution (HBSS) with Ca^2+ and Mg^2+, 1 mM Hepes and 5 µM Coelenterazine H (NanoLight Technologies, a division of Prolume, Ltd., Pinetop, AZ, USA), for 45 minutes, together with Cetrorelix, Ganirelix, Teverelix or vehicle, as appropriate. […] The EC50 was extrapolated from the curve obtained from each cell line. Cells treated by 5 µM of the sarco/endoplasmic reticulum Ca^2+ ATPase enzyme inhibitor, thapsigargin (Tocris Bioscience), served as positive control. Treatment by the vehicle (HBSS) was the negative control and used as a normalizer.
(§1) BRET experiments were performed using a CLARIOstar plate reader equipped by a monocromator (BMG Labtech, Ortenberg, Germany), as previously described.
Data were plotted on graphs as means ± standard error of means (SEM). The kinetics of intracellular Ca^2+ increase was represented by the BRET biosensor emission after background subtraction (vehicle). […] Data distributions were analyzed by D’Agostino and Pearson normality tests and inhibition of intracellular Ca^2+ increase by different concentrations of antagonist were compared using two-way analysis of variance (ANOVA), followed by Bonferroni post-test or Kruskal-Wallis and proper post-test. cAMP accumulation was represented as acceptor:donor emission ratio (induced BRET changes) after basal subtraction (untreated cells). Dose-response curves were obtained by data interpolation using non-linear regressions and normalized as percentage of the maximal response. EC50s, as well as half-maximal inhibitory concentrations (IC50), were compared by t-test or Mann–Whitney U test, while results obtained by Western blotting and qRT-PCR data were compared by one-way ANOVA followed by Bonferroni post-test. Statistical differences were considered as significant for p < 0.05. These analyses were performed using the GraphPad Prism software (GraphPad Software Inc., San Diego, CA, USA).
(In general: Bioluminescence resonance energy transfer reports proximity on the nanometre scale.)

Experiment [2] has as its target T1, GnRH receptor (GnRHR). Description: BRET (CAMYEL) measurement of cAMP accumulation in SH-SY5Y/GnRHR cells. It counts as cell-based. On the set-up: HA (hemagglutinin); expressed in transfected cells. As for the experimental part:
Different transfection protocols were followed, depending on the endpoint to be measured. For BRET experiments, 3 × 10^4 cells were transiently transfected using vectors expressing the cAMP-CAMYEL or the aequorin-Ca^2+ BRET biosensor-encoding cDNA [59], as appropriate, together with the GnRHR-HA-encoding vector. Transfections were performed in a 96-well plate using the Metafectene PRO reagent (Biontex, München, Germany), as previously described. […]
cAMP accumulation was measured in cells transiently expressing both the BRET-based cAMP biosensor CAMYEL [64] and GnRHR. […] BRET signals were detected at 475 and 535 nm wavelengths upon the addition of 5 µM Coelenterazine H (NanoLight Technologies). […]
as §1
Data were plotted on graphs as means ± standard error of means (SEM). […] Data distributions were analyzed by D’Agostino and Pearson normality tests and inhibition of intracellular Ca^2+ increase by different concentrations of antagonist were compared using two-way analysis of variance (ANOVA), followed by Bonferroni post-test or Kruskal-Wallis and proper post-test. cAMP accumulation was represented as acceptor:donor emission ratio (induced BRET changes) after basal subtraction (untreated cells). […]

A further experiment has as its system β-catenin activation. Description: Immunofluorescence of active β-catenin in HEK293/GnRHR cells. Format: cell-based, human. The settings on record: 1 µM GnRH + 1 µM antagonist, 1 h. As for the experimental part: In order to evaluate the activation of phospho-proteins and β-catenin by Western blotting and immunofluorescence, 1 × 10^5 HEK293 cells were transiently transfected in a 24-well plate. To this purpose, 500 ng of GnRHR-HA-encoding vector diluted in 2 µL/well Lipofectamine® 2000 Transfection Reagent (Invitrogen) were used, according to the manufacturer’s instructions. Transfected HEK293 cells (HEK293/GnRHR) were cultured for 48 h and maintained over-night in serum-free medium before experiments.
3 × 10^4 HEK293/GnRHR and mock-transfected HEK293 cells (negative control) were plated on gelatine-treated slides. […] As a positive control, cells were treated for 16 h with 100 nM of the selective glycogen synthase kinase 3 (GSK3) inhibitor, CHIR99021 (Sigma-Aldrich), which stabilizes free cytosolic β-catenin [68]. After stimulations, cells were washed in PBS with Ca^2+/Mg^2+ and fixed for 20 min in paraformaldehyde 4%/PBS. Cell monolayers were washed by PBS and permeabilized using 0.1% Triton X-100. Samples were incubated in 4% bovine serum albumin (BSA)/PBS, for 1 h at room temperature (RT), before incubation with a mouse primary antibody targeting β-catenin (#05-665, 1:300 dilution in 4% BSA/PBS; Merck KGaA) overnight at 4 °C. Following washing, cells were then incubated with Cy3-conjugated anti-mouse IgG secondary antibody (#C2181, 1:200 dilution in 4% BSA/PBS; Sigma-Aldrich) for 1 h at RT. Cell monolayers were then stained for 10 min with 4′,6-diamidino-2-phenylindole (DAPI) (Sigma-Aldrich) and washed in PBS before slide treatment by polyvinyl alcohol mounting medium with 1,4-diazabicyclo[2.2.2]octane (DABCO®) (Sigma-Aldrich). Fluorescent signals were detected using the Eclipse Ni-E microscope (Nikon Instruments BV, Amsterdam, The Netherlands).

[3] abbreviates: 3xEC50 GnRH + 100 pM antagonist.
The mark [4] stands for this setting: 3xEC50 GnRH + 100 nM antagonist.

Where two headings read alike, the source gives them in different places. Square brackets hold non-standard residues; d marks the D form. Peptide text beside a SMILES is read from it. d(hArg(Et2)) = CCN=C(NCC)NCCCC[C@@H](N)C(=O)O; hArg(Et2) = CCN=C(NCC)NCCCC[C@H](N)C(=O)O; dPhe(4-Cl) = N[C@H](Cc1ccc(Cl)cc1)C(=O)O; d2Nal = N[C@H](Cc1ccc2ccccc2c1)C(=O)O; dCit = NC(=O)NCCC[C@@H](N)C(=O)O; d3Pal = N[C@H](Cc1cccnc1)C(=O)O

As for `CCN=C(NCC)NCCCC[C@H](NC(=O)[C@H](CC(C)C)NC(=O)[C@@H](CCCCNC(=NCC)NCC)NC(=O)[C@H](Cc1ccc(O)cc1)NC(=O)[C@H](CO)NC(=O)[C@@H](Cc1cccnc1)NC(=O)[C@@H](Cc1ccc(Cl)cc1)NC(=O)[C@@H](Cc1ccc2ccccc2c1)NC(C)=O)C(=O)N1CCC[C@H]1C(=O)N[C@H](C)C(N)=O` [Ganirelix] (Ac-[d2Nal][dPhe(4-Cl)][d3Pal]SY[d(hArg(Et2))]L[hArg(Et2)]P[dA]-NH2; N-terminus and C-terminus assumed), the “AUC of the kinetics of intracellular Ca2+ response” value (shortened to “AUC”) was 93877±14161 on GnRH receptor (GnRHR) [1] (3xEC50 GnRH + 1 pM antagonist); 113983±12281 on GnRH receptor (GnRHR) [1] (3xEC50 GnRH + 10 pM antagonist); 116076±24125 on GnRH receptor (GnRHR) [1] (setting [3]); 75460±15613 at GnRH receptor (GnRHR) [1] (3xEC50 GnRH + 1 nM antagonist); 83904±19566 on GnRH receptor (GnRHR) [1] (3xEC50 GnRH + 10 nM antagonist); 52343±8665 on GnRH receptor (GnRHR) [1] (3xEC50 GnRH + 20 nM antagonist). Further, the “AUC” value at GnRH receptor (GnRHR) [1] (setting [4]) worked out at 82720±17902; at GnRH receptor (GnRHR) [1] (3xEC50 GnRH + 1 uM antagonist), 6523±3056. Besides, on GnRH receptor (GnRHR) [2] (read-out: IC50 of inhibition of GnRH-induced cAMP accumulation), the IC50 was 16.6 ± 3.76 nM. Also, in the experiment with β-catenin activation, the “effect on GnRH-induced active β-catenin staining” value is given as “reduced”.
For the molecule `CC(=O)N[C@H](Cc1ccc2ccccc2c1)C(=O)N[C@H](Cc1ccc(Cl)cc1)C(=O)N[C@H](Cc1cccnc1)C(=O)N[C@@H](CO)C(=O)N[C@@H](Cc1ccc(O)cc1)C(=O)N[C@H](CCCNC(N)=O)C(=O)N[C@@H](CC(C)C)C(=O)N[C@@H](CCCNC(=N)N)C(=O)N1CCC[C@H]1C(=O)N[C@H](C)C(N)=O` [Cetrorelix] (Ac-[d2Nal][dPhe(4-Cl)][d3Pal]SY[dCit]LRP[dA]-NH2), the “AUC” value at GnRH receptor (GnRHR) [1] (3xEC50 GnRH + 1 pM antagonist) came out at 105586±22643; on GnRH receptor (GnRHR) [1] (3xEC50 GnRH + 10 pM antagonist), 103653±11947; at GnRH receptor (GnRHR) [1] (setting [3]), 118914±31558; at GnRH receptor (GnRHR) [1] (3xEC50 GnRH + 1 nM antagonist), 81413±26479; on GnRH receptor (GnRHR) [1] (3xEC50 GnRH + 10 nM antagonist), 81282±26769; on GnRH receptor (GnRHR) [1] (3xEC50 GnRH + 20 nM antagonist) it was 58382±8030. The figures for the “AUC” value on GnRH receptor (GnRHR) [1] (setting [4]) and on GnRH receptor (GnRHR) [1] (3xEC50 GnRH + 1 uM antagonist) were 46414±15714 and 13355±4381, respectively. Also, on GnRH receptor (GnRHR) [2], the IC50 came out at 1.56 ± 2.49 nM. Moreover, the “effect on GnRH-induced active β-catenin staining” value in the experiment with β-catenin activation is on record as “reduced”.
